ChEMBL document CHEMBL1629525, “Synthesis and characterization of 1,3-dihydro-benzo[b][1,4]diazepin-2-one derivatives: Part 4. In vivo active potent and selective non-competitive metabotropic glutamate receptor 2/3 antagonists” (Bioorg Med Chem Lett, 2010)
In brackets after ≈: the same amount, converted by molar mass.

Assays:
[1] = target: T1, Metabotropic glutamate receptor 2 (Rattus norvegicus, UniProt P31421); assay: Partial displacement of [3H]LY354740 from recombinant rat mGluR2
Cytochrome P450 3A4 = Cytochrome P450 3A4 (Homo sapiens, UniProt P08684); assay: Inhibition of CYP3A4; assay type: ADME
Sequence of Cytochrome P450 3A4 (P08684 whole entry): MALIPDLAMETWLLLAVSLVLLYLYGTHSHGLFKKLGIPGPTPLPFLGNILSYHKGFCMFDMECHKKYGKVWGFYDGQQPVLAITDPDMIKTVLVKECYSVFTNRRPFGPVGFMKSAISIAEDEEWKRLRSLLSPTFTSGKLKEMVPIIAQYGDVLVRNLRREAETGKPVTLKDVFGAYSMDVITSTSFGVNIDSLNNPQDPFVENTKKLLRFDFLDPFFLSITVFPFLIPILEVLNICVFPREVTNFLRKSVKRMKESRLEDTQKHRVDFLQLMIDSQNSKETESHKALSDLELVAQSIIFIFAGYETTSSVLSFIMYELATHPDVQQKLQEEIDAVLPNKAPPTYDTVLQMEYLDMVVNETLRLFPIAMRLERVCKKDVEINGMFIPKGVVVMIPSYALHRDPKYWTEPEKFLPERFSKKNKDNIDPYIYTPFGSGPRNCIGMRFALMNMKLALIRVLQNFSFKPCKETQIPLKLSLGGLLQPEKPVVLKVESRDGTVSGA

[2] = Thermodynamic solubility of the compound at pH 3; assay type: physicochemical; conditions: buffer
[3] = target: T1, Metabotropic glutamate receptor 2; assay: Antagonist activity at recombinant rat mGluR2 expressed in forskolin-stimulated CHO cells assessed as inhibition of (1S,3R)-ACPD induced cAMP production; assay type: functional, cell-based
[4] = target: Metabotropic glutamate receptor 2 (Homo sapiens, UniProt Q14416); assay: Antagonist activity at human mGluR2 receptor expressed in CHO cells assessed as inhibition of GIRK current; assay type: functional, cell-based
Sequence of Metabotropic glutamate receptor 2 (Homo sapiens, UniProt Q14416) (Q14416 whole entry): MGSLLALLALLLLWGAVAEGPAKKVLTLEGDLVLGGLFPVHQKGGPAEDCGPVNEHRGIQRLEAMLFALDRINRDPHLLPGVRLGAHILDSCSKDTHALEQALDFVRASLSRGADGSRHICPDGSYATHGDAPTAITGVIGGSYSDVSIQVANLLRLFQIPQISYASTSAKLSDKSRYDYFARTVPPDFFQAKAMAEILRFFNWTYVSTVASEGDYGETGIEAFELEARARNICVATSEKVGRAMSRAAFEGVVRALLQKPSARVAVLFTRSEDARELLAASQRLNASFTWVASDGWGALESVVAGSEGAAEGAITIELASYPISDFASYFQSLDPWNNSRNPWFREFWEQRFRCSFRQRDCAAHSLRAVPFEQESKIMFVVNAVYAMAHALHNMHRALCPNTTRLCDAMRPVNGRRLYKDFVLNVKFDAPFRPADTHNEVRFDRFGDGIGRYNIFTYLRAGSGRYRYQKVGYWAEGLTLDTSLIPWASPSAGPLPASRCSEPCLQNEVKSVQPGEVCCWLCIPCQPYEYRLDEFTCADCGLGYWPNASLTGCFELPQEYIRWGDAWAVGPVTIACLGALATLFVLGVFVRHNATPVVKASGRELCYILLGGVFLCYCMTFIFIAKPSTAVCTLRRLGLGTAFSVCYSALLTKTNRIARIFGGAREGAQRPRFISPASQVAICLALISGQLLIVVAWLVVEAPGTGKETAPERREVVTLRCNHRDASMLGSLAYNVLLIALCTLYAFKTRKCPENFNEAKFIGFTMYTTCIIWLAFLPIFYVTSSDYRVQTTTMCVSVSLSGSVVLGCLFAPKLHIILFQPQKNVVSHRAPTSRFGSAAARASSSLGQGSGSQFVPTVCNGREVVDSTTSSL

[5] = target: Metabotropic glutamate receptor 3 (Rattus norvegicus, UniProt P31422); assay: Antagonist activity at rat mGluR3 receptor expressed in CHO cells assessed as inhibition of GIRK current; assay type: functional, cell-based
Sequence of Metabotropic glutamate receptor 3 (P31422 whole entry): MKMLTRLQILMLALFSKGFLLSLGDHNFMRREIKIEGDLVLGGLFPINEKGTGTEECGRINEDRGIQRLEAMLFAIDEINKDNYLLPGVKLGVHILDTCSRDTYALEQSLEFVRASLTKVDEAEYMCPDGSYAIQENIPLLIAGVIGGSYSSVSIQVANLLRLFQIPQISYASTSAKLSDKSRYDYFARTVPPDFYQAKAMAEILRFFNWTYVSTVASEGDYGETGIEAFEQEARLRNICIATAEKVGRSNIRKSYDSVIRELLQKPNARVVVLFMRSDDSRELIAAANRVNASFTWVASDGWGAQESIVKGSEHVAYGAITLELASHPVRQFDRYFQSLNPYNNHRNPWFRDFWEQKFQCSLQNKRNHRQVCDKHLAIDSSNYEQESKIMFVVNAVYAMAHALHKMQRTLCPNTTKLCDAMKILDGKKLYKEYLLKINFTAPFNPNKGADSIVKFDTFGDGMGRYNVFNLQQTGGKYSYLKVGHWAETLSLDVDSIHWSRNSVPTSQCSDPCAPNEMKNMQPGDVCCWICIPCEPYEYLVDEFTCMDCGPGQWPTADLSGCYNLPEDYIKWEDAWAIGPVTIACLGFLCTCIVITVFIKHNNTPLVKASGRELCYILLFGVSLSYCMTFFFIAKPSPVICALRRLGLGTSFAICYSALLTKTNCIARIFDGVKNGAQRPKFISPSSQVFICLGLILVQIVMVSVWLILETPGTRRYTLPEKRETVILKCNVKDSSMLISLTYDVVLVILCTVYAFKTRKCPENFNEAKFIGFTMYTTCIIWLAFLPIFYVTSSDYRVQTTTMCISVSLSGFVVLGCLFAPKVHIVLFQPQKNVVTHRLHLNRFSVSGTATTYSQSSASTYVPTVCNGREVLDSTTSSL

[6] = target: T1, Metabotropic glutamate receptor 2; assay: Antagonist activity at rat mGluR2 receptor expressed in CHO cells assessed as inhibition of GIRK current; assay type: functional, cell-based
Liver microsomes = assay: Clearance in rat liver microsomes; assay type: ADME, Microsome

T1 sequence (P31421 whole entry): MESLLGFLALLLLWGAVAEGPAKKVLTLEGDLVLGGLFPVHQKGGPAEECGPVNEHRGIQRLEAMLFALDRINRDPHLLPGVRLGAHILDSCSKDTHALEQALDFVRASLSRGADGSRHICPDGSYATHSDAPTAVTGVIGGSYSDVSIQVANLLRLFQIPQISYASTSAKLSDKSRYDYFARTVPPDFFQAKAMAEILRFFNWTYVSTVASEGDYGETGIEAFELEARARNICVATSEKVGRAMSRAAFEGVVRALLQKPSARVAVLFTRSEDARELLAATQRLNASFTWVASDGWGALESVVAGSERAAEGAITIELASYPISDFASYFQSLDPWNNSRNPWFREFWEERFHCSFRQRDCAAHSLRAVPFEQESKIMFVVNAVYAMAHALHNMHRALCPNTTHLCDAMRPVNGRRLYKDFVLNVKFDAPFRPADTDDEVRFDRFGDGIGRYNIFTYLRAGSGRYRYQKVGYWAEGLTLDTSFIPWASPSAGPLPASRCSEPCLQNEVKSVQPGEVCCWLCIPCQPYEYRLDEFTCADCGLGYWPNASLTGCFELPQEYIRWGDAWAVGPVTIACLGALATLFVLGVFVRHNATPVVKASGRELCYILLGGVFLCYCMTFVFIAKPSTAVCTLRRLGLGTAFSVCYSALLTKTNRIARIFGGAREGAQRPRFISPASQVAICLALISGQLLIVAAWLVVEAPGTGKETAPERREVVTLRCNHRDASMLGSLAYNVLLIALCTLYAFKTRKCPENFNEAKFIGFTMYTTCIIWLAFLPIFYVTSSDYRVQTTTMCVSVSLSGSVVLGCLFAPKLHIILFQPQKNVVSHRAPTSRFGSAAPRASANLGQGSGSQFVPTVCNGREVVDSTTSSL

| SMILES | IC50 [1] | IC50 [3] | further results |
| --- | --- | --- | --- |
| Cc1cc2c(cc1C(F)(F)F)NC(=O)CC(c1cccc(-c3ccncc3)c1)=N2 | 4 nM | 11 nM | IC50 (Cytochrome P450 3A4): 200 nM; solubility thermodynamic [2]: 5 µg/mL (≈ 12.6 µM) |
| Cc1cc2c(cc1C(F)(F)F)NC(=O)CC(c1cccc(-c3ccc(N)nc3)c1)=N2 | 14 nM | 160 nM | – |
| Cc1cc2c(cc1C(F)(F)F)NC(=O)CC(c1cccc(-c3cncnc3)c1)=N2 | 23 nM | 48 nM | – |
| Cc1cc2c(cc1C(F)(F)F)NC(=O)CC(c1cccc(-n3ccnc3)c1)=N2 | – | – | IC50 (Cytochrome P450 3A4): < 100 nM |
| Cc1cc2c(cc1C(F)(F)F)NC(=O)CC(c1cccc(-c3ccnc(N4CCOCC4)c3)c1)=N2 | 29 nM | – | – |
| Cc1cc2c(cc1C(F)(F)F)NC(=O)CC(c1cccc(-n3nncc3CO)c1)=N2 | 120 nM | – | – |
| Cc1cc2c(cc1C(F)(F)F)NC(=O)CC(c1cccc(-c3ccnc(-c4ccccc4)c3)c1)=N2 | 118 nM | – | – |
| Cc1cc2c(cc1C(F)(F)F)NC(=O)CC(c1cccc(-c3ccnc(Cc4ccccc4)c3)c1)=N2 | 16 nM | 5 nM | – |
| Cc1cc2c(cc1C(F)(F)F)NC(=O)CC(c1cccc(-c3ccnc(CN(C)C)c3)c1)=N2 | 274 nM | – | – |
| Cc1cc(-c2cccc(C3=Nc4ccc(C(F)(F)F)cc4NC(=O)C3)c2)ccn1 | 18 nM | 36 nM | IC50 [4]: 25 nM; IC50 [5]: 17 nM |
| CCc1cc(-c2cccc(C3=Nc4cc(C)c(C(F)(F)F)cc4NC(=O)C3)c2)ccn1 | 8 nM | 5 nM | – |
| Cc1cc(-c2cccc(C3=Nc4cc(C)c(C(F)(F)F)cc4NC(=O)C3)c2)ccn1 | 4 nM | 4 nM | IC50 [6]: 13 nM; IC50 (Cytochrome P450 3A4): 1900 nM; IC50 [4]: 41 nM; CL (Liver microsomes): 0.8 mL/kg/min; solubility thermodynamic [2]: 45 µg/mL (≈ 110 µM); IC50 [5]: 14 nM |

Now from value to compound, other results behind:

| IC50 [1] | IC50 [3] | SMILES | further results |
| --- | --- | --- | --- |
| 13 nM | 6 nM | COCc1cc(-c2cccc(C3=Nc4cc(C)c(C(F)(F)F)cc4NC(=O)C3)c2)ccn1 | – |
| 9 nM | 18 nM | CCc1ccc(-c2cccc(C3=Nc4cc(C)c(C(F)(F)F)cc4NC(=O)C3)c2)cn1 | – |
| 2 nM | 4 nM | CCc1cc(-c2cccc(C3=Nc4cc(C)c(C(F)(F)F)cc4NC(=O)C3)c2)cc(C)n1 | – |
| 10 nM | 7 nM | Cc1cc2c(cc1C(F)(F)F)NC(=O)CC(c1cccc(-c3ccnc(C4CCCC4)c3)c1)=N2 | – |
| 66 nM | – | Cc1cc2c(cc1C(F)(F)F)NC(=O)CC(c1cccc(-c3ccnc(C(F)(F)F)c3)c1)=N2 | – |
| 4 nM | 2 nM | Cc1cc(-c2cccc(C3=Nc4cc(Cl)c(Cl)cc4NC(=O)C3)c2)ccn1 | IC50 [4]: 7 nM; IC50 [5]: 30 nM |
| 2 nM | 3 nM | Cc1cc2c(cc1C(F)(F)F)NC(=O)CC(c1cccc(-c3cccnc3)c1)=N2 | IC50 (Cytochrome P450 3A4): 1800 nM |
| 10 nM | 10 nM | Cc1cc2c(cc1C(F)(F)F)NC(=O)CC(c1cccc(-c3ccc(C(C)C)nc3)c1)=N2 | – |
| 26 nM | 30 nM | Cc1cc2c(cc1C(F)(F)F)NC(=O)CC(c1cccc(-c3ccccn3)c1)=N2 | – |
| 18 nM | 72 nM | Cc1cc2c(cc1C(F)(F)F)NC(=O)CC(c1cccc(-c3ccnnc3)c1)=N2 | – |
| 4 nM | 10 nM | CCOc1cc2c(cc1C(F)(F)F)NC(=O)CC(c1cccc(-c3ccncc3)c1)=N2 | IC50 [6]: 8 nM; IC50 [4]: 38 nM; IC50 [5]: 6 nM |
| 86 nM | – | Cc1cc2c(cc1C(F)(F)F)NC(=O)CC(c1cccc(-c3ccc(N(C)C)nc3)c1)=N2 | – |
| 2 nM | 4 nM | Cc1cc(-c2cccc(C3=Nc4cc(C)c(C(F)(F)F)cc4NC(=O)C3)c2)cc(C2CC2)n1 | – |
